Assay results: US4323568A, “Pharmaceutically active (omega-aminoalkoxy)bibenzyls” (Mitsubishi Chemical Industries Limited, priority 1977, dated 1982)
Counter-ions that a name gives are not always drawn.

Columns and labels:
[1] = test system: rabbit blood platelet aggregation; test: inhibition of collagen-induced platelet aggregation in rabbit platelet-rich plasma (turbidometric method of Born); format: cell-based; settings: Oryctolagus cuniculus, collagen 10 to 15 μg/ml, 37° C., 3 min preincubation, read-out: I50 (concentration inhibiting platelet aggregation by 50 percent)
Procedure: Evaluation of the compounds of this invention for their activity against platelet aggregation was carried out according to a turbidometric method described by G. V. R. Born, Nature 194 927 (1962). Platelet aggregation was measured using platelet-rich plasma prepared from citrated blood which was collected from a carotid artery of male white rabbits of Japanese native kind. A suspension of collagen (bovine Achilles tendon collagen, Sigma) in saline was used to cause platelet aggregation. The aggregation of rabbit blood platelet was induced by adding the suspension of collagen to give 10 to 15 μg collagen per milliliter. At this time, the tests were conducted at 37° C. at levels of 4×10^5 platelet/mm^3. A solution of compounds of this invention in saline was added to the platelet-rich plasma. After three minutes of preincubation with the platelet-rich plasma, collagen was added to cause platelet aggregation. Percent inhibition was calculated by comparison with controls.
Using the above procedure, the compounds of this invention were compared to aspirin.
(§1) The concentration of the compound in micromoles inhibiting platelet aggregation by 50 percent (I50) and LD50 which was calculated by Litchfield-Wilcoxon method are shown in Table 1.

[2] = LD50 i.p. in mice, calculated by Litchfield-Wilcoxon method; settings: mouse, in vivo, ip, read-out: ID50 (the source's name)
Procedure: as §1

Compound | IC50 [1] | LD50 [2]
CC(=O)Oc1ccccc1C(=O)O [Aspirin, aspirin, reference compound] | 25000 nM | –
CN(C)CCOc1ccccc1CCc1ccccc1 [Example 1, 2-(2-dimethylaminoethoxy)bibenzyl hydrochloride] | 600 nM | 165 mg/kg
CN(C)CCCOc1ccccc1CCc1ccccc1 [Example 2, 2-(3-dimethylaminopropoxy)bibenzyl hydrochloride] | 600 nM | –
CN(C)CCCCOc1ccccc1CCc1ccccc1 [Example 3, 2-(4-dimethylaminobutoxy)bibenzyl] | 600 nM | 215 mg/kg
CN(C)CCCCCOc1ccccc1CCc1ccccc1 [Example 4, 2-(5-dimethylaminopentyloxy)bibenzyl] | 800 nM | 205 mg/kg
CN(C)CCCCCCOc1ccccc1CCc1ccccc1 [Example 5, 2-(6-dimethylaminohexyloxy)bibenzyl] | 1000 nM | –
CNCCCCOc1ccccc1CCc1ccccc1 [Example 6, 2-(4-methylaminobutoxy)bibenzyl] | 7000 nM | –
CCCCN(C)CCCCOc1ccccc1CCc1ccccc1 [Example 7, 2-[4-(N-methyl-N-butylamino)butoxy]bibenzyl] | 3000 nM | –
CN(CCO)CCCCOc1ccccc1CCc1ccccc1 [Example 8, 2-{4-[N-methyl-N-(2-hydroxyethyl)amino]butoxy}bibenzyl] | 2000 nM | –
c1ccc(CCc2ccccc2OCCCCN2CCCCC2)cc1 [Example 9, 2-(4-piperidinobutoxy)bibenzyl] | 1000 nM | –
c1ccc(CCc2ccccc2OCCCCN2CCOCC2)cc1 [Example 10, 2-(4-morpholinobutoxy)bibenzyl] | 10000 nM | –
c1ccc(CCc2ccccc2OCCCCN2CCNCC2)cc1 [Example 11, 2-[4-(1-piperazinyl)butoxy]bibenzyl dihydrochloride] | 2000 nM | –
c1ccc(CCc2ccccc2OCCCCN2CCCC2)cc1 [Example 12, 2-[4-(1-pyrrolidinyl)butoxy]bibenzyl] | 700 nM | –
OCCN1CCN(CCCCOc2ccccc2CCc2ccccc2)CC1 [Example 13, 2-{4-[4-(2-hydroxyethyl)-1-piperazinyl]butoxy}bibenzyl] | 3000 nM | –
OCCN(CCO)CCCCOc1ccccc1CCc1ccccc1 [Example 14, 2-[4-bis(2-hydroxyethyl)aminobutoxy]bibenzyl] | 5000 nM | –
CCN(CC)CCOc1ccccc1CCc1ccccc1 [Example 15, 2-(2-diethylaminoethoxy)bibenzyl] | 500 nM | –
CCN(CC)CCCOc1ccccc1CCc1ccccc1 [Example 16, 2-(3-diethylaminopropoxy)bibenzyl] | 500 nM | 187 mg/kg
CCN(CC)CCCCOc1ccccc1CCc1ccccc1 [Example 17, 2-(4-diethylaminobutoxy)bibenzyl] | 800 nM | –
CCN(CC)CCCCCOc1ccccc1CCc1ccccc1 [Example 18, 2-(5-diethylaminopentyloxy)bibenzyl] | 1000 nM | –
CCN(CC)CCCCCCOc1ccccc1CCc1ccccc1 [Example 19, 2-(6-diethylaminohexyloxy)bibenzyl] | 1000 nM | –
CN(C)CCCOc1ccc(CCc2ccccc2)cc1 [Example 20, 4-(3-dimethylaminopropoxy)bibenzyl] | 2000 nM | –
CN(C)CCCCOc1ccc(CCc2ccccc2)cc1 [Example 21, 4-(4-dimethylaminobutoxy)bibenzyl] | 2000 nM | –
Cl.O=C(O)C1CCN(CCCCOc2ccccc2CCc2ccccc2)CC1 [Example 22, 2-[4-(4-carboxypiperidino)butoxy]bibenzyl hydrochloride] | 5500 nM | 500 mg/kg
NC(=O)C1CCN(CCCCOc2ccccc2CCc2ccccc2)CC1 [Example 24, 2-[4-(4-carbamoylpiperidino)butoxy]bibenzyl] | 1500 nM | 500 mg/kg
NC(=O)C1CCN(CCOc2ccccc2CCc2ccccc2)CC1 [Example 25, 2-[2-(4-carbamoylpiperidino)ethoxy]bibenzyl] | 2500 nM | –

Compound | IC50 [1] | LD50 [2]
CN(C)C(=O)C1CCN(CCCCOc2ccccc2CCc2ccccc2)CC1 [Example 26, 2-[4-(4-dimethylcarbamoylpiperidino)butoxy]bibenzyl hydrochloride] | 3000 nM | –
CCNC(=O)C1CCN(CCCCOc2ccccc2CCc2ccccc2)CC1 [Example 27, 2-[4-(4-ethylcarbamoylpiperidino)butoxy]bibenzyl] | 2500 nM | –
NC(=O)C1CCCN(CCCCOc2ccccc2CCc2ccccc2)C1 (stereo not shown) [Example 29, 2-[4-(3-carbamoylpiperidino)butoxy]bibenzyl] | 1400 nM | 270 mg/kg
NC(=O)C1CCN(CCCOc2ccccc2CCc2ccccc2)CC1 [Example 30, 2-[3-(4-carbamoylpiperidino)propoxy]bibenzyl] | 2000 nM | –
COc1ccccc1CCc1ccccc1OCCN(C)C [Example 31, 2-(2-dimethylaminoethoxy)-2'-methoxybibenzyl] | 600 nM | –
COc1ccccc1CCc1ccccc1OCCCCN(C)C [Example 32, 2-(4-dimethylaminobutoxy)-2'-methoxybibenzyl] | 900 nM | 250 mg/kg
COc1cccc(CCc2ccccc2OCCCCN(C)C)c1 [Example 34, 2-(4-dimethylaminobutoxy)-3'-methoxybibenzyl] | 550 nM | 200 mg/kg
COc1cccc(CCc2ccccc2OCCCCN2CCN(CCO)CC2)c1 [Example 35, 2-{4-[4-(2-hydroxyethyl)-1-piperazinyl]butoxy}-3'-methoxybibenzyl] | 1200 nM | –
CCOc1ccccc1CCc1ccccc1OCCCCN(CC)CC [Example 37, 2-(4-diethylaminobutoxy)-2'-ethoxybibenzyl] | 1000 nM | –
CN(C)CCCCOc1ccccc1CCc1ccccc1O [Example 38, 2-(4-dimethylaminobutoxy)-2'-hydroxybibenzyl] | 900 nM | 167 mg/kg
COC(=O)c1ccccc1CCc1ccccc1OCCN(C)C [Example 41, 2-(2-dimethylaminoethoxy)-2'-methoxycarbonylbibenzyl] | 500 nM | 130 mg/kg
CN(C)CCCOc1ccccc1CCc1ccc(Cl)cc1 [Example 44, 2-(3-dimethylaminopropoxy)-4'-chlorobibenzyl] | 600 nM | 185 mg/kg
OCCN1CCN(CCCCOc2ccccc2CCc2ccc(Cl)cc2)CC1 [Example 45, 2-{4-[4-(2-hydroxyethyl)-1-piperazinyl]butoxy}-4'-chlorobibenzyl] | 3000 nM | –
Clc1ccc(CCc2ccccc2OCCCCN2CCCC2)cc1 [Example 46, 2-[4-(1-pyrrolidinyl)butoxy]-4'-chlorobibenzyl] | 1300 nM | –
CN(C)CCCCOc1ccccc1CCc1ccccc1Cl.Cl [Example 47, 2-(4-dimethylaminobutoxy)-2'-chlorobibenzyl hydrochloride] | 500 nM | 170 mg/kg
CN(C)CCCCCCOc1ccccc1CCc1ccccc1Cl [Example 51, 2-(6-dimethylaminohexyloxy)-2'-chlorobibenzyl] | 800 nM | 250 mg/kg
CN(C)CCCOc1ccccc1CCc1ccccc1Cl [Example 52, 2-(3-dimethylaminopropoxy)-2'-chlorobibenzyl] | 630 nM | –
CN(C)CCCOc1ccccc1CCc1ccc(Cl)c(Cl)c1.Cl [Example 54, 2-(3-dimethylaminopropoxy)-3',4'-dichlorobibenzyl hydrochloride] | 600 nM | 250 mg/kg
CN(C)CCCCOc1ccccc1CCc1ccc(F)cc1 [Example 55, 2-(4-dimethylaminobutoxy)-4'-fluorobibenzyl] | 750 nM | 185 mg/kg
NC(=O)C1CCN(CCCCOc2ccccc2CCc2ccc(F)cc2)CC1 [Example 56, 2-[4-(4-carbamoylpiperidino)butoxy]-4'-fluorobibenzyl] | 1300 nM | 450 mg/kg
OC1CCN(CCCCOc2ccccc2CCc2ccc(F)cc2)CC1 [Example 58, 2-[4-(4-hydroxypiperidino)butoxy]-4'-fluorobibenzyl] | 1100 nM | –
Cc1ccccc1CCc1ccccc1OCCCCN(C)C [Example 61, 2-(4-dimethylaminobutoxy)-2'-methylbibenzyl] | 1100 nM | –
Cc1ccccc1CCc1ccccc1OCCCCN1CCC(C(N)=O)CC1 [Example 63, 2-[4-(4-carbamoylpiperidino)butoxy]-2'-methylbibenzyl] | 2000 nM | –
CN(C)CCCOc1ccccc1CCc1ccc(N(C)C)cc1 [Example 64, 2-(3-dimethylaminopropoxy)-4'-dimethylaminobibenzyl] | 350 nM | –
COc1cccc(CCc2ccccc2)c1OCCCCN(C)C [Example 67, 2-(4-dimethylaminobutoxy)-3-methoxybibenzyl] | 3000 nM | –
